Source: patent US10206908B2, “3-(1H-pyrrolo[3,2-C]pyridin-2-YL)-1H-pyrazolo[3,4-C]pyridines and therapeutic uses thereof” (Samumed, LLC, priority 2015, dated 2019)

How the values were obtained:
Type in all cases: cell-based
[1] = system: primary human mesenchymal stem cells (hMSCs); assay: Induction of chondrogenesis in hMSCs (chondrogenic nodules, Rhodamine B/Nile Red); details: 6 days; for EC50: concentration required to induce 50% levels of chondrogenesis vs TGF-β3, read-out: Conc (nM) of 50% TGF-β3 activity; for Emax: relative to TGF-β3 (10 ng/mL) positive control, read-out: Max. Activity as % TGF-β3 activity
Source text: Representative compounds were screened using primary human mesenchymal stem cells (hMSCs) to determine their ability to induce chondrogenesis (process by which cartilage is developed).
Human Mesenchymal Stem Cell Culture: Primary human mesenchymal stem cells (hMSCs) were purchased from Lonza (Walkersville, Md.) and expanded in Mesenchymal Stem Cell Growth Media (Lonza). Cells between passage 3 and 6 were used for the experiments.
Number of nodules in each well was normalized to the average of 3 DMSO treated wells on the same plate using Excel (Microsoft Inc.). The normalized averages (fold change over DMSO) of 3 replicate wells for each compound concentration were calculated. Due to solubility limitations of some of the compounds, curve fitting was incomplete leading to inaccurate EC50 determinations.
Using TGF-β3 as a positive control, the concentration of representative compounds required to induce 50% levels of chondrogenesis is reported. In addition, the maximum activity of each compound and the respective dose that each compound reached maximum chondrogenesis activity is reported.

[2] = system: Wnt activity (Sp5-Luc reporter, SW480 colon carcinoma cells); assay: Screening assay for Wnt activity: Sp5-Luc reporter gene assay in SW480 colon carcinoma cells; details: Homo sapiens; for EC50: Sp5-Luc reporter, SW480 cells, overnight incubation; for inhibition at 10 µM: SW480, read-out: percent inhibition at 10 μM
Source text: The screening assay for Wnt activity is described as follows. Reporter cell lines can be generated by stably transducing cancer cell lines (e.g., colon cancer) or primary cells (e.g., IEC-6 intestinal cells) with a lentiviral construct that includes a Wnt-responsive promoter driving expression of the firefly luciferase gene.
SW480 colon carcinoma cells were transduced with a lentiviral vector expressing luciferase with a human Sp5 promoter consisting of a sequence of eight TCF/LEF binding sites. SW480 cells stably expressing the Sp5-Luc reporter gene and a hygromycin resistance gene were selected by treatment with 150 μg/mL of hygromycin for 7 days. These stably transduced SW480 cells were expanded in cell culture and used for all further screening activities. […] For Sp5-Luc reporter gene assays, the cells were plated at 4,000 cells/well in 384-well plates with medium containing 1% fetal bovine serum and incubated overnight at 37° C. and 5% CO2. Following incubation, 20 μl of BrightGlo luminescence reagent (Promega) was added to each well of the 384-well assay plates. The plates were placed on an orbital shaker for 2 min and then luminescence was quantified using the Envision (Perkin Elmer) plate reader. Readings were normalized to DMSO only treated cells, and normalized activities were utilized for EC50 calculations using the dose-response log (inhibitor) vs. response-variable slope (four parameters) nonlinear regression feature available in GraphPad Prism 5.0 (or Dotmatics).

SW480 colon cancer cells = assay: Cell viability assay (CellTiter-Blue) in SW480 colon cancer cells; details: Homo sapiens; for EC50: 96 h, SW480 cell viability, four days; for inhibition at 10 µM: SW480, read-out: percent inhibition at 10 μM
Procedure: Representative compounds were screened using the following assay procedure to assess the effect on cell viability as described below.
Approximately 2×10^3 SW480 colon cancer cells were seeded into each well and allowed to incubate in the presence or absence of compound for four days at 37° C./5% CO2. Eight replicates of DMSO-treated cells served as controls and cells treated with compound were performed in duplicate.
After incubation, 20 μL of CellTiter-Blue (Promega) was added to each well allowed to incubate for approximately 3 hours. This reagent was a buffered solution which contains resazurin, metabolically active cells were able to reduce rezarurin (blue) into resorufin (pink) which was highly fluorescent. This measured fluorescence was used as a readout for cell viability.

IL-6 (THP-1 cells) = assay: IL-6 inhibition in LPS-stimulated THP-1 monocytes (HTRF); details: Homo sapiens; for EC50: IL-6, THP-1 cells, LPS 500 ng/mL, 22 hours; for inhibition at 10 µM: THP-1, read-out: percent inhibition at 10 μM
Procedure: Compound Screening: THP-1 cells were cultured in basal media with 1% FBS for 24 hours before the start of the assay. […] THP-1 cells were plated at 5000 cells/well in the 384-well plates and incubated at 37° C. for 2 h. 500 ng/mL of LPS was added after 2 hours and cells were incubated for another 22 hours at 37° C. Plates were spun in a centrifuge for 1 minute at […] and a mixture of anti-IL6 XL665, and anti-IL6 Cryptate diluted in reconstitution buffer (Cisbio Inc.) was added to each well. Following incubation for 3 hrs at room temperature, Homogeneous Time-Resolved Fluorescence (HTRF) was measured using the Envision (Perkin Elmer) at 665 nm and […]. The ratio of fluorescence at 665 nm to 620 nm was used as a readout for IL6 quantification. All samples were processed in duplicate. Readings were normalized to DMSO treated cells and normalized activities were utilized for EC50 calculations using the dose-response log (inhibitor) vs. response-variable slope (four parameters) nonlinear regression feature available in GraphPad Prism 5.0 (or Dotmatics).

[3] = system: primary human fibroblasts derived from IPF patients (LL29 cells) treated with TGF-β1; assay: Inhibition of the fibrotic process: αSMA staining in TGF-β1 treated LL29 fibroblasts; details: Fibroblast; for EC50: 96 h, % αSMA positive LL29 cells, TGF-β1 20 ng/mL, 4 days; for inhibition at 10 µM: read-out: percent inhibition at 10 μM
Procedure: Representative compounds were screened using primary human fibroblasts (derived from IPF patients) treated with TGF-β1 to determine their ability to inhibit the fibrotic process.
LL29 cells are plated at 1,500 cells/well in 80 μL/well F12 medium supplemented with 1% Fetal Bovine Serum. […] Wells treated with TGF-β1 and containing DMSO were used as controls. […] Following incubation for 4 days, SYTOX green nucleic acid stain (Life Technologies [Thermo Fisher Scientific]) was added to the wells at a final concentration of 1 μM and incubated at room temperature for 30 min.

| Compound | EC50 [1] [nM] | EC50 [2] [nM] | EC50 (SW480 colon cancer cells) [nM] | EC50 (IL-6 (THP-1 cells)) [nM] | Emax [1] [%] | EC50 [3] [nM] | inhibition at 10 µM [2] [%] | inhibition at 10 µM (SW480 colon cancer cells) [%] | inhibition at 10 µM (IL-6 (THP-1 cells)) [%] | inhibition at 10 µM [3] [%] |
| --- | --- | --- | --- | --- | --- | --- | --- | --- | --- | --- |
| CN(C)Cc1cncc(-c2cc3c(-c4cc5c(-c6cccc(F)c6)nccc5[nH]4)n[nH]c3cn2)c1 [Compound 13, 1-(5-(3-(4-(3-Fluorophenyl)-1H-pyrrolo[3,2-c]pyridin-2-yl)-1H-pyrazolo[3,4-c]pyridin-5-yl)pyridin-3-yl)-N,N-dimethylmethanamine] | 30 | 1850 | 1730 | 425 | 60 | 9 | – | – | – | – |
| CC(C)CC(=O)Nc1cncc(-c2cc3c(-c4cc5c(-c6cc(F)cc(CNS(C)(=O)=O)c6)nccc5[nH]4)n[nH]c3cn2)c1 [Compound 478, N-(5-(3-(4-(3-Fluoro-5-(methylsulfonamidomethyl)phenyl)-1H-pyrrolo[3,2-c]pyridin-2-yl)-1H-pyrazolo[3,4-c]pyridin-5-yl)pyridin-3-yl)-3-methylbutanamide] | – | > 10000 | > 10000 | > 10000 | – | > 10000 | 38.7 | 6.3 | 41.3 | 29 |
| CS(=O)(=O)NCc1cc(F)cc(-c2nccc3[nH]c(-c4n[nH]c5cnc(-c6cncc(CN7CCCC7)c6)cc45)cc23)c1 [Compound 490, N-(3-Fluoro-5-(2-(5-(5-(pyrrolidin-1-ylmethyl)pyridin-3-yl)-1H-pyrazolo[3,4-c]pyridin-3-yl)-1H-pyrrolo[3,2-c]pyridin-4-yl)benzyl)methanesulfonamide] | – | > 10000 | > 10000 | 3860 | – | > 10000 | 28.7 | 5.5 | – | 0 |
| CC(C)(C)CC(=O)Nc1cncc(-c2cc3c(-c4cc5c(-c6cc(F)cc(CNS(C)(=O)=O)c6)nccc5[nH]4)n[nH]c3cn2)c1 [Compound 492, N-(5-(3-(4-(3-Fluoro-5-(methylsulfonamidomethyl)phenyl)-1H-pyrrolo[3,2-c]pyridin-2-yl)-1H-pyrazolo[3,4-c]pyridin-5-yl)pyridin-3-yl)-3,3-dimethylbutanamide] | – | > 10000 | > 10000 | > 10000 | – | > 10000 | 17.3 | 8.6 | 4.6 | 1.8 |
| CS(=O)(=O)NCc1cc(F)cc(-c2nccc3[nH]c(-c4n[nH]c5cnc(-c6ccccn6)cc45)cc23)c1 [Compound 504, N-(3-Fluoro-5-(2-(5-(pyridin-2-yl)-1H-pyrazolo[3,4-c]pyridin-3-yl)-1H-pyrrolo[3,2-c]pyridin-4-yl)benzyl)methanesulfonamide] | – | 1670 | 1560 | 2150 | – | 3390 | – | – | – | – |
| Fc1cccc(-c2nccc3[nH]c(-c4n[nH]c5cnc(C6CCNCC6)cc45)cc23)c1 [Compound 505, 3-(4-(3-Fluorophenyl)-1H-pyrrolo[3,2-c]pyridin-2-yl)-5-(piperidin-4-yl)-1H-pyrazolo[3,4-c]pyridine] | – | > 10000 | > 10000 | > 10000 | – | > 10000 | 28.3 | 5.2 | 16.4 | 0 |
| CN1CCN(c2nccc3[nH]c(-c4n[nH]c5cnc(-c6cncc(NC(=O)CC7CCNCC7)c6)cc45)cc23)CC1 [Compound 641, N-(5-(3-(4-(4-Methylpiperazin-1-yl)-1H-pyrrolo[3,2-c]pyridin-2-yl)-1H-pyrazolo[3,4-c]pyridin-5-yl)pyridin-3-yl)-2-(piperidin-4-yl)acetamide] | – | > 10000 | > 10000 | > 10000 | – | 5120 | 7.9 | 4.4 | 14.4 | – |

Now those with a lower EC50 [2], led by results:

| EC50 [1] [nM] | EC50 [2] [nM] | EC50 (SW480 colon cancer cells) [nM] | EC50 (IL-6 (THP-1 cells)) [nM] | Compound | Emax [1] [%] | EC50 [3] [nM] | inhibition at 10 µM [2] [%] | inhibition at 10 µM (SW480 colon cancer cells) [%] | inhibition at 10 µM (IL-6 (THP-1 cells)) [%] | inhibition at 10 µM [3] [%] |
| --- | --- | --- | --- | --- | --- | --- | --- | --- | --- | --- |
| 30 | 305 | 931 | 733 | CCC(=O)Nc1cncc(-c2cc3c(-c4cc5c(-c6cccc(F)c6)nccc5[nH]4)n[nH]c3cn2)c1 [Compound 1, N-(5-(3-(4-(3-Fluorophenyl)-1H-pyrrolo[3,2-c]pyridin-2-yl)-1H-pyrazolo[3,4-c]pyridin-5-yl)pyridin-3-yl)propionamide] | 51 | 235 | – | – | – | – |
| 300 | 500 | 867 | 649 | Fc1cccc(-c2nccc3[nH]c(-c4n[nH]c5cnc(-c6cccnc6)cc45)cc23)c1 [Compound 4, 3-(4-(3-Fluorophenyl)-1H-pyrrolo[3,2-c]pyridin-2-yl)-5-(pyridin-3-yl)-1H-pyrazolo[3,4-c]pyridine] | 114 | 20 | – | – | – | – |
| 900 | 289 | 298 | 669 | CC(C)CC(=O)Nc1cncc(-c2cc3c(-c4cc5c(-c6ccc(F)cc6)nccc5[nH]4)n[nH]c3cn2)c1 [Compound 30, N-(5-(3-(4-(4-Fluorophenyl)-1H-pyrrolo[3,2-c]pyridin-2-yl)-1H-pyrazolo[3,4-c]pyridin-5-yl)pyridin-3-yl)-3-methylbutanamide] | 71 | 356 | – | – | – | – |
| – | 595 | 716 | 489 | Cc1ccncc1-c1cc2c(-c3cc4c(-c5ccc(F)cc5)nccc4[nH]3)n[nH]c2cn1 [Compound 33, 3-(4-(4-Fluorophenyl)-1H-pyrrolo[3,2-c]pyridin-2-yl)-5-(4-methylpyridin-3-yl)-1H-pyrazolo[3,4-c]pyridine] | 24 | 266 | – | – | – | – |
| – | 78 | > 10000 | 503 | Cn1cc(-c2cc3c(-c4cc5c(-c6cccnc6)nccc5[nH]4)n[nH]c3cn2)cn1 [Compound 556, 5-(1-Methyl-1H-pyrazol-4-yl)-3-(4-(pyridin-3-yl)-1H-pyrrolo[3,2-c]pyridin-2-yl)-1H-pyrazolo[3,4-c]pyridine] | – | 69 | – | 0 | – | – |
| – | 1440 | 1100 | 3810 | c1cc2[nH]c(-c3n[nH]c4cnc(-c5cncc(OC6CCCCC6)c5)cc34)cc2c(N2CCCCC2)n1 [Compound 607, 5-(5-(Cyclohexyloxy)pyridin-3-yl)-3-(4-(piperidin-1-yl)-1H-pyrrolo[3,2-c]pyridin-2-yl)-1H-pyrazolo[3,4-c]pyridine] | – | 1140 | – | – | – | – |
